From patent publication US8980846B2, “Composition containing styraxlignolide A or the aglycone thereof as an active ingredient for preventing or treating asthma” (Korea Research Institute of Bioscience and Biotechnology, priority 2010, dated 2015) come the findings set out here.

Each structure is given as a SMILES string.

Data set [1] can be described thus: Body weight in asthma-induced mice. Type of data set: in vivo, Balb/c female mice. Conditions: 3 mg/kg PO 1 hour prior to ovalbumin inhalation. The method, then:
(§1) To prepare bronchial asthma-induced experimental animals, six-week-old Balb/c female mice of mean weight about 20 g were used. After one week of adaptation, individuals which had no observed abnormality on a basic physical examination were targeted. 200 μL of phosphate buffered saline (PBS)(pH 7.4) in which 2 mg of aluminum hydroxide (A8222, Sigma, St. Louis, Mo.) and 20 μg of ovalbumin (A5503, Sigma, St. Louis, Mo.) were suspended was injected into the peritoneal cavity at two-week intervals to result in sensitization. On days 28 to 30 after the first intraperitoneal administration of ovalbumin, inhalation challenge was performed for 30 min with 1% ovalbumin using an ultrasonic atomizer. 24 hours after the last antigen administration, airway hyperresponsiveness was measured. After 24 hours, a lethal dose of pentobarbital (Entobar®, Hanlim Pharm Co., Ltd.) was administered, body weight measurement and bronchotomy were performed, and bronchoalveolar lavage was performed with a total 1.2 mL of physiological saline, and then, samples were collected. […] Eight white mice were used for each group. Experimental groups for homoegonol were a group (hE7.5) in which animals were orally administered with 7.5 mg/kg homoegonol 1 hour prior to ovalbumin inhalation, a group (hE15) in which animals were orally administered with 15 mg/kg homoegonol 1 hour prior to ovalbumin inhalation, and a group (hE30) in which animals were orally administered with 30 mg/kg homoegonol 1 hour prior to ovalbumin inhalation, and five white mice were used for each group.
To determine an effect of styraxlignolide A on reduction in body weight in asthma-induced mice, body weight of each mouse prepared in Example 2 was measured. For statistical analyses for all measurements, means and standard errors (mean±S.E.) according to a number of variables were calculated, and comparison between each group was analyzed by performing a Mann-whitney U test using SPSS 10.0. Statically significance was accepted at p<0.05.
To determine an effect of homoegonol on reduction in body weight in asthma-induced mice, body weight of each mouse prepared in Example 2 was measured. For statistical analyses for all measurements, means and standard errors (mean±S.E.) according to a number of variables were calculated, and comparison between each group was analyzed by performing a Mann-whitney U test using SPSS 10.0. Statically significance was accepted at p<0.05.

The subject of data set [2] is airway hyperresponsiveness. Put plainly: Airway hyperresponsiveness, Penh by one chamber plethysmography after methacholine inhalation. Type of data set: in vivo, Balb/c female mice. Conditions: asthma-induced mice, homoegonol study, 3 mg/kg PO. How it is done:
as §1, with “Experimental groups for homoegonol were a group (hE7.5) in which animals were orally administered with 7.5 mg/kg homoegonol 1 hour prior to ovalbumin inhalation, a group (hE15) in which animals were orally administered with 15 mg/kg homoegonol 1 hour prior to ovalbumin inhalation, and a group (hE30) in which animals were orally administered with 30 mg/kg homoegonol 1 hour prior to ovalbumin inhalation, and five white mice were used for each group.” left out
The effect of styraxlignolide A on airway hyperresponsiveness caused by asthma occurrence was examined by measuring airway resistance with one chamber plethysmography (All medicus, Seoul, Republic of Korea) and degree of airway resistance was assessed by measuring Penh (enhanced pause) values. The baseline value was measured under a normal respiratory condition, and then, PBS was inhaled using an ultrasonic atomizer for 3 min, and Penh values were measured over 3 min. […] Louis, Mo.) which is used in general methods for diagnosis of bronchial asthma were inhaled and Penh values were measured. Penh value is shown in the following Equation 1, and the resulting Penh value was expressed as a percent increase in Penh after inhalation of each concentration of methacholine. The baseline Penh (saline challenge) was expressed as 100%.
Te: expiratory time (sec), the time from inspiration to the next inspiration
RT: relaxation time, the elapsed time between the beginning of the expiration and the moment when the remaining 30% of the tidal volume has been reached during expiration
PEF: Peak expiration flow
PIF: Peak inspiration flow
To examine the effect of homoegonol on airway hyperresponsiveness caused by asthma occurrence, Penh value was measured according to the method in <Experimental Example 2>.

Data set [3] concerns inflammatory cells in bronchoalveolar lavage fluid. Put plainly: Inflammatory cell counts in bronchoalveolar lavage fluid (Diff-Quick staining). The following applies: asthma-induced mice. Type of data set: in vivo, Balb/c female mice. The method, then: as §1
Bronchoalveolar lavage fluid was collected from individuals of each experimental group in <Example 2> and right after the collection, fluid was stained with trypan blue. The number of total cells except dead cells was calculated using a hemocytometer. Then, Diff-Quick staining (Sysmex, Swizerland) was performed after smear preparation with Cytospin II, and eosinophils and other inflammatory cells were differentially counted.
To examine the effect of homoegonol on asthma, variation in the numbers of asthma-related inflammatory cells was measured according to the method in <Experimental Example 3>.

Data set [4] deals with alanine aminotransferase (ALT) and aspartate aminotransferase (AST) in serum. Type of data set: in vivo. The following applies: mouse, in vivo, po, 3 mg/kg. The method, then: as §1
To examine liver toxicity of styraxlignolide A, a commercially available ELISA kit (BECKMAN Coulter, Inc., Fullerton, Calif., USA) was used to measure alanine aminotransferase (ALT) and aspartate aminotransferase (AST) in serum.

The test system of data set [5] is goblet cells. The experiment in a line: Ratio of goblet cells to bronchial epithelial cells (PAS staining). The format is in vivo, Balb/c female mice. The following applies: asthma-induced mice, styraxlignolide A study; 3 mg/kg PO 1 hour prior to ovalbumin inhalation. The method, then: as §1
Lungs removed from each individual were subjected to conventional formalin fixation and paraffin embedding, and permanent section slides of 4 μm thickness were prepared, and periodic acid Schiff (PAS) staining was performed to determine goblet cells. Proliferation of goblet cells was assessed by measuring the ratio of goblet cells to bronchial epithelial cells.
In accordance with the method in <Experimental Example 7-2>, the ratio of goblet cells which were determined by periodic acid-Schiff staining to bronchial epithelial cells were measured to assess proliferation of goblet cells.

In data set [6] the test system is fibrosis in subsegmental bronchi. Put plainly: Fibrosis in subsegmental bronchi (Masson's trichrome staining). The format is in vivo, Balb/c female mice. Conditions: asthma-induced mice, styraxlignolide A study; 3 mg/kg PO 1 hour prior to ovalbumin inhalation. How it is done: as §1
Data set [7] deals with TGF-β1. Put plainly: TGF-β1 in bronchoalveolar lavage fluid. The format is in vivo, Balb/c female mice. The following applies: asthma-induced mice, homoegonol study; 3 mg/kg PO. The method, then: as §1
(§2) To examine the effect of homoegonol on airway remodeling, generation of TGF-β1 and IL-17 in bronchoalveolar lavage fluid was measured.

Data set [8] has as its system IL-17. The experiment in a line: IL-17 in bronchoalveolar lavage fluid. The format is in vivo, Balb/c female mice. Conditions: asthma-induced mice, homoegonol study; 3 mg/kg PO. The method, then: as §1, §2
Data set [9] concerns inflammatory cells in bronchoalveolar lavage fluid. The experiment in a line: Inflammatory cell counts in bronchoalveolar lavage fluid (Diff-Quick staining). Conditions: asthma-induced mice. Type of data set: in vivo, Balb/c female mice. The source holds these as a separate data set.
For data set [10], the system named is ovalbumin-specific IgE. The experiment in a line: IgE levels in serum and bronchoalveolar lavage fluid (ELISA). The format is in vivo, Balb/c female mice. Conditions: asthma-induced mice, homoegonol study, 3 mg/kg PO. For orientation: In an ELISA, binding on a coated surface is turned into a signal by an enzyme label.
Data set [11] has as its system inflammatory cells in the airway mucosa. Put plainly: Inflammatory cell infiltration in airway mucosa, inflammatory index (H&E staining). The format is in vivo, Balb/c female mice. Conditions: asthma-induced mice, scale 0-4.
Data set [12] deals with goblet cells. The experiment in a line: Ratio of goblet cells to bronchial epithelial cells (PAS staining). The format is in vivo, Balb/c female mice. The following applies: asthma-induced mice, homoegonol study, 3 mg/kg PO.
Setting [13] is: styraxlignolide A study, 3 mg/kg PO 1 hour prior to ovalbumin inhalation.
Setting [14] is: homoegonol study, 3 mg/kg PO, bronchoalveolar lavage fluid, 3 mg/kg.
The mark [15] stands for this setting: homoegonol study, 3 mg/kg PO, 3 mg/kg.

In the case of `C[C@@H]1C[C@H]2[C@@H]3CCC4=CC(=O)C=C[C@]4(C)[C@@]3(F)[C@@H](O)C[C@]2(C)[C@@]1(O)C(=O)CO` [DEXA, dexamethasone], the body weight in [1] (homoegonol study) was 19.98 ± 0.39 g; in data set [1] (styraxlignolide A study), 20.49 ± 0.29 g. For the same compound, the Penh values in [2] (methacholine 0 mg/ml) is reported as 0.4407 ± 0.0422; in [2] (methacholine 12.5 mg/ml), 0.7768 ± 0.1475; in data set [2] (methacholine 25 mg/ml), 0.8900 ± 0.1619; in [2] (methacholine 50 mg/ml), 1.1036 ± 0.4048. The “Number of cells, Other inflammatory cells” value in [3] (homoegonol study, 3 mg/kg PO, bronchoalveolar lavage fluid) is 18.72 ± 2.2919 ×10^3 cells/mouse. Further, the “numbers of eosinophils in bronchoalveolar lavage fluid” value in data set [3] (setting [13]) is 41.88±9.08. Further, the “serum ALT” value in data set [4] amounted to 274.67±12.12 IU/L. Besides, the “serum AST” value in data set [4] is on record as 369.33±31.27 IU/L. Further, the “ratio of goblet cells to bronchiolar epithelial cells” value in data set [5] is recorded as 34.96±6.86%. Moreover, the “area of a fibrosis stained region per 100 μm of a basement membrane perimeter” value in [6] turned out to be 639.59±106.96 μm^2. Moreover, in data set [7], the “TGF-β1 concentrations in bronchoalveolar lavage fluid” value came to 159.2813 ± 12.9548 pg/mL. Moreover, the “IL-17 concentrations in bronchoalveolar lavage fluid” value in data set [8] worked out at 48.8409 ± 4.3738 pg/mL. Moreover, the “Number of cells, Eosinophils” value in [9] (setting [14]) was 1.32±0.49 ×10^3 cells/mouse. In addition, the “Number of cells, Total inflammatory cells” value in data set [9] (setting [14]) is 20.04±4.7744 ×10^3 cells/mouse. The “numbers of total inflammatory cells in bronchoalveolar lavage fluid” value in data set [9] (setting [13]) turned out to be 153.48±19.69. Also, in [10] (bronchoalveolar lavage fluid), the “Total IgE level in bronchoalveolar lavage fluid” value amounted to 24.3617 ± 4.8149 ng/mL. The “Total serum IgE level” value in data set [10] (serum, Table 2) was 9.14 ± 2.0591 µg/mL. In addition, in data set [11] (setting [15]), the “Inflammatory index, peribronchiolar” value is 0.78±0.1315. Besides, in [11] (setting [15]), the “Inflammatory index, perivascular” value was 0.44±0.1571. In [11] (setting [13]), the peribronchiolar inflammatory index stood at 1.46±0.26. Moreover, the “Goblet cells %/bronchial epithelial cell unit” value in data set [12] is reported as 18.7828±5.9397%.
